Reference: patent US9289430B2, “Compounds and methods for inhibiting phosphate transport” (Ardelyx, Inc., priority 2010, dated 2016)

Key:
[1] = Fecal recovery of orally administered compounds; format: in vivo, Sprague-Dawley rats; conditions: rats, oral gavage, nominal 10 mg/kg (actual 7.6-11 mg/kg), feces 0-48 hr after dosing
Experimental: Quantitative determination of test compound level in feces after oral gavage was performed using the same set of animals used to determine test compound concentration in plasma (Example 30). The animals were kept in metabolic cages and feces were collected from the time of dosing until 48 hr after dosing. Upon collection, feces was dried by lyophilization and ground to a visually homogenous powder. Duplicate samples of ground feces from each individual animal were weighed out and extracted using organic solvent. Extracted samples were then diluted into mobile phase and test compound levels were quantitatively determined by LC-MS/MS analysis as described in “Example 30” except that the standard curve was prepared in a feces matrix. Extraction conditions were not optimized for individual compounds, and thus may represent a minimal level of recovery.

rat NaP2b (SLC34A2) = molecular target: T1, rat NaP2b (SLC34A2) (Rattus norvegicus, UniProt Q9JJ09); test: NaP2b-mediated Pi transport: 33P phosphate uptake into transfected HEK293 cells; format: cell-based; conditions: 100 uM KH2PO4, PiT-silencing agent, read-out: pIC50 range for rat Nap2b (converted)
T1 construct: host or cells: HEK293
T1 sequence (Q9JJ09 1-695): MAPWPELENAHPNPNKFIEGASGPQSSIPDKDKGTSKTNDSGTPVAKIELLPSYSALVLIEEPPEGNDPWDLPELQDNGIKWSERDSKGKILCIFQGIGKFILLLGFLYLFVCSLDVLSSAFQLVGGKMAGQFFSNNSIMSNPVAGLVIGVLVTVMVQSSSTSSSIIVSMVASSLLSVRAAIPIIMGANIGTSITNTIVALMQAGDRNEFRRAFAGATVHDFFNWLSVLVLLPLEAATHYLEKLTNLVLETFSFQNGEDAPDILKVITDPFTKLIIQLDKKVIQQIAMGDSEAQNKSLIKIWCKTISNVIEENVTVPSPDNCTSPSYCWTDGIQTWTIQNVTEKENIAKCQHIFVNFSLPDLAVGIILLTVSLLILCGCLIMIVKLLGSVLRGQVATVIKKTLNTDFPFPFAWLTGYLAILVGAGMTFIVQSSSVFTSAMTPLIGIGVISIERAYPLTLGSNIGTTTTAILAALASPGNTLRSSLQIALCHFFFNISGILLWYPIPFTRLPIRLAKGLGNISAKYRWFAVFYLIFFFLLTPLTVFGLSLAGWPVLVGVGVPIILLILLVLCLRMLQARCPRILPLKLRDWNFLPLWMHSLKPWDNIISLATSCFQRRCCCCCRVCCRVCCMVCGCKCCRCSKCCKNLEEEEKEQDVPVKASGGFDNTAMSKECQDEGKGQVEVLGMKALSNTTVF

human NaP2b (SLC34A2) = molecular target: T2, human NaP2b (SLC34A2) (Homo sapiens, UniProt O95436); test: as above; format: cell-based; conditions: human protein with threonine inserted after residue 37 and N39D, 100 uM KH2PO4, read-out: pIC50 range for human Nap2b (converted)
T2 construct: host or cells: HEK293
T2 sequence (O95436 1-690): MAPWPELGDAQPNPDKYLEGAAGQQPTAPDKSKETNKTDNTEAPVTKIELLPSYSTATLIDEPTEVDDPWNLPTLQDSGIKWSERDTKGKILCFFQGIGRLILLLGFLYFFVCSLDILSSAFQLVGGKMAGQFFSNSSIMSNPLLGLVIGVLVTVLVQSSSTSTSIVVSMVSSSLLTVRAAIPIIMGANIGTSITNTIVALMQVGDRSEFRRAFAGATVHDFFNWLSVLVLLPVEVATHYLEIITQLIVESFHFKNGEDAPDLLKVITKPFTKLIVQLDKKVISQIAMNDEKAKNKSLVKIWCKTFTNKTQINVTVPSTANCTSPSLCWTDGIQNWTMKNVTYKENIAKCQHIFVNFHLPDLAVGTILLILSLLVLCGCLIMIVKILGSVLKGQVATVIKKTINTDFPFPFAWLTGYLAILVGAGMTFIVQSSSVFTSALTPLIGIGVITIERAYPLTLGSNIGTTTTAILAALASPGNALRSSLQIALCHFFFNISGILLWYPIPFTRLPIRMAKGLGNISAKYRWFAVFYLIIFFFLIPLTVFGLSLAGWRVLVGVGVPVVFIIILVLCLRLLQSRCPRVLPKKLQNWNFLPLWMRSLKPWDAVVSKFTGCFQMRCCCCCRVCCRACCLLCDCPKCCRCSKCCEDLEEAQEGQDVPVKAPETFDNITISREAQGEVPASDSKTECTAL
Method in brief: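 Transiently transfected HEK293 cells, human clone carrying Thr insertion after residue 37 and N39D; PiT transport silenced pharmacologically. ^33P-phosphate uptake in sodium buffer (100 uM KH2PO4, pH 7.4) versus choline buffer, 3-30 min at room temperature, twelve concentrations 0.1 nM–30 uM in duplicate; scintillation counting, pIC50 derived.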

| % recovered in feces [1] | IC50 (rat NaP2b (SLC34A2)) | IC50 (human NaP2b (SLC34A2)) | Compound |
| --- | --- | --- | --- |
| 9.5% | < 1000 nM | < 1000 nM | O=C(O)CCOCCOCCOCCNC(=O)Cc1cccc(SCc2cccc(C(=O)Nc3ccc(N4CCCCC4)cc3C(=O)Nc3ccn(-c4cccc(C(F)(F)F)c4)n3)c2)c1 [Example 26, 2-Oxo-1-(3-((3-((4-(piperidin-1-yl)-2-((1-(3-(trifluoromethyl)phenyl)-1H-pyrazol-3-yl)carbamoyl)phenyl)carbamoyl)benzyl)thio)phenyl)-6,9,12-trioxa-3-azapentadecan-15-oic acid] |
| 47% | < 1000 nM | < 1000 nM | CN(CCN1CCOCC1)C(=O)c1cccc(C(=O)Nc2ccc(N3CCCCC3)cc2C(=O)Nc2ccn(-c3cccc(C(F)(F)F)c3)n2)c1 [Example 11, N1-Methyl-N1-(2-morpholinoethyl)-N3-(4-(piperidin-1-yl)-2-((1-(3-(trifluoromethyl)phenyl)-1H-pyrazol-3-yl)carbamoyl)phenyl)isophthalamide] |

| Compound | % recovered in feces [1] | IC50 (rat NaP2b (SLC34A2)) | IC50 (human NaP2b (SLC34A2)) |
| --- | --- | --- | --- |
| CN(CCN1CCOCC1)C(=O)c1cccc(C(=O)Nc2ccc(Cl)cc2C(=O)Nc2ccn(-c3cccc(C(F)(F)F)c3)n2)c1 [Example 14, N1-(4-Chloro-2-((1-(3-(trifluoromethyl)phenyl)-1H-pyrazol-3-yl)carbamoyl)phenyl)-N3-methyl-N3-(2-morpholinoethyl)isophthalamide 2,2,2-trifluoroacetate] | 6.6% | < 1000 nM | < 1000 nM |
